The record followed here is ChEMBL document CHEMBL3734719, “Discovery of highly potent triazoleantifungal agents with piperidine-oxadiazole side chains” (2015).

SMILES strings stand for the structures. Values after ≈ are worked out from the molar mass of the structure shown. Where only a bound is given, the exact number is not on record here.

The subject of the first assay is Candida albicans. Nature of the assay: Antifungal activity against Candida albicans after 48 hrs by spectrophotometry.
Conditions: not given
The class given is functional.
A word on the MIC80: it is an inhibitory concentration at the 80% level, which refers to growth in some studies and to a panel of isolates in others. A lower MIC80 goes with greater potency. Take `OC(CN1CCC(c2nnc(-c3cccc4ccccc34)o2)CC1)(Cn1cncn1)c1ccc(F)cc1F` (configuration not stated): the MIC80 was found to be 1 µg/mL (≈ 1.94 µM).
On the same count and under the same terms, for `OC(CN1CCC(c2nnc(-c3ccccc3)o2)CC1)(Cn1cncn1)c1ccc(F)cc1F` (configuration not stated) the value was 0.125 µg/mL (≈ 0.268 µM); for `OC(CN1CCC(c2nnc(-c3ccc(F)cc3)o2)CC1)(Cn1cncn1)c1ccc(F)cc1F` (configuration not stated), 0.063 µg/mL (≈ 0.13 µM).
Take `OC(CN1CCC(c2nc(-c3ccsc3)no2)CC1)(Cn1cncn1)c1ccc(F)cc1F` (configuration not stated): the MIC80 was determined as 0.5 µg/mL (≈ 1.06 µM). This MIC80 is about 7.9-fold higher than that of the molecule before.
`OC(CN1CCC(c2nc(-c3ccc(C(F)(F)F)cc3)no2)CC1)(Cn1cncn1)c1ccc(F)cc1F` (configuration not stated) registered an MIC80 of 0.5 µg/mL (≈ 0.935 µM).
On the same count and under the same terms, for `CCc1ccc(-c2nnc(C3CCN(CC(O)(Cn4cncn4)c4ccc(F)cc4F)CC3)o2)cc1` (configuration not stated) the value was 0.5 µg/mL (≈ 1.01 µM).

In the next assay the test system is Candida parapsilosis. The assay can be described thus: Antifungal activity against Candida parapsilosis after 48 hrs by spectrophotometry. The format is functional. The note with it: Lodderomyces parapsilosis.
`OC(CN1CCC(c2nnc(-c3cccc4ccccc34)o2)CC1)(Cn1cncn1)c1ccc(F)cc1F` (configuration not stated) had an MIC80 of 8 µg/mL (≈ 15.5 µM).
Same read-out and setting: for `OC(CN1CCC(c2nnc(-c3ccccc3)o2)CC1)(Cn1cncn1)c1ccc(F)cc1F` (configuration not stated) the value was 0.5 µg/mL (≈ 1.07 µM).
Still for that read-out and setting: for `OC(CN1CCC(c2nnc(-c3ccc(F)cc3)o2)CC1)(Cn1cncn1)c1ccc(F)cc1F` (configuration not stated) the value was 0.5 µg/mL (≈ 1.03 µM).
On the same count and under the same terms, the same measure for `OC(CN1CCC(c2nc(-c3ccsc3)no2)CC1)(Cn1cncn1)c1ccc(F)cc1F` (configuration not stated): 4 µg/mL (≈ 8.47 µM); for `OC(CN1CCC(c2nc(-c3ccc(C(F)(F)F)cc3)no2)CC1)(Cn1cncn1)c1ccc(F)cc1F` (configuration not stated): 4 µg/mL (≈ 7.48 µM).
The molecule `CCc1ccc(-c2nnc(C3CCN(CC(O)(Cn4cncn4)c4ccc(F)cc4F)CC3)o2)cc1` (configuration not stated) displayed an MIC80 of 2 µg/mL (≈ 4.04 µM).

In a further assay the test system is Cryptococcus neoformans. Nature of the assay: Antifungal activity against Cryptococcus neoformans after 48 hrs by spectrophotometry.
Conditions: not given
The format is functional.
`OC(CN1CCC(c2nnc(-c3cccc4ccccc34)o2)CC1)(Cn1cncn1)c1ccc(F)cc1F` (configuration not stated) returned an MIC80 of 4 µg/mL (≈ 7.74 µM).
The same measure, in the same setting: for `OC(CN1CCC(c2nnc(-c3ccccc3)o2)CC1)(Cn1cncn1)c1ccc(F)cc1F` (configuration not stated) the value was 0.25 µg/mL (≈ 0.536 µM).
Same read-out and setting: for `OC(CN1CCC(c2nnc(-c3ccc(F)cc3)o2)CC1)(Cn1cncn1)c1ccc(F)cc1F` (configuration not stated) the value was at most 0.125 µg/mL; for `OC(CN1CCC(c2nc(-c3ccsc3)no2)CC1)(Cn1cncn1)c1ccc(F)cc1F` (configuration not stated), 2 µg/mL (≈ 4.23 µM).
Still for that read-out and setting: the same measure for `OC(CN1CCC(c2nc(-c3ccc(C(F)(F)F)cc3)no2)CC1)(Cn1cncn1)c1ccc(F)cc1F` (configuration not stated): 2 µg/mL (≈ 3.74 µM); for `CCc1ccc(-c2nnc(C3CCN(CC(O)(Cn4cncn4)c4ccc(F)cc4F)CC3)o2)cc1` (configuration not stated): 2 µg/mL (≈ 4.04 µM).

The next assay relates to Nakaseomyces glabratus. The assay can be described thus: Antifungal activity against Candida glabrata after 48 hrs by spectrophotometry. The class given is functional.
Conditions: not given
In the case of `OC(CN1CCC(c2nnc(-c3cccc4ccccc34)o2)CC1)(Cn1cncn1)c1ccc(F)cc1F` (configuration not stated), the MIC80 was 8 µg/mL (≈ 15.5 µM).
`OC(CN1CCC(c2nnc(-c3ccccc3)o2)CC1)(Cn1cncn1)c1ccc(F)cc1F` (configuration not stated) registered an MIC80 of 2 µg/mL (≈ 4.29 µM).
On the same count and under the same terms, for `OC(CN1CCC(c2nnc(-c3ccc(F)cc3)o2)CC1)(Cn1cncn1)c1ccc(F)cc1F` (configuration not stated) the value was 1 µg/mL (≈ 2.06 µM); for `OC(CN1CCC(c2nc(-c3ccsc3)no2)CC1)(Cn1cncn1)c1ccc(F)cc1F` (configuration not stated), 4 µg/mL (≈ 8.47 µM); for `OC(CN1CCC(c2nc(-c3ccc(C(F)(F)F)cc3)no2)CC1)(Cn1cncn1)c1ccc(F)cc1F` (configuration not stated), 2 µg/mL (≈ 3.74 µM).
On to `CCc1ccc(-c2nnc(C3CCN(CC(O)(Cn4cncn4)c4ccc(F)cc4F)CC3)o2)cc1` (configuration not stated), for which the MIC80 was 4 µg/mL (≈ 8.09 µM).

The subject of a further assay is Aspergillus fumigatus. The assay can be described thus: Antifungal activity against Aspergillus fumigatus after 48 hrs by spectrophotometry.
Conditions: not given
The format is functional.
On to `OC(CN1CCC(c2nnc(-c3cccc4ccccc34)o2)CC1)(Cn1cncn1)c1ccc(F)cc1F` (configuration not stated), for which the MIC80 came out at 8 µg/mL (≈ 15.5 µM).
Still for that read-out and setting: for `OC(CN1CCC(c2nnc(-c3ccccc3)o2)CC1)(Cn1cncn1)c1ccc(F)cc1F` (configuration not stated) the value was 2 µg/mL (≈ 4.29 µM); for `OC(CN1CCC(c2nnc(-c3ccc(F)cc3)o2)CC1)(Cn1cncn1)c1ccc(F)cc1F` (configuration not stated), 1 µg/mL (≈ 2.06 µM); for `OC(CN1CCC(c2nc(-c3ccsc3)no2)CC1)(Cn1cncn1)c1ccc(F)cc1F` (configuration not stated), 4 µg/mL (≈ 8.47 µM).
`OC(CN1CCC(c2nc(-c3ccc(C(F)(F)F)cc3)no2)CC1)(Cn1cncn1)c1ccc(F)cc1F` (configuration not stated) registered an MIC80 of 2 µg/mL (≈ 3.74 µM).
On the same count and under the same terms, for `CCc1ccc(-c2nnc(C3CCN(CC(O)(Cn4cncn4)c4ccc(F)cc4F)CC3)o2)cc1` (configuration not stated) the value was 4 µg/mL (≈ 8.09 µM).

The next assay has as its system Trichophyton rubrum. Nature of the assay: Antifungal activity against Trichophyton rubrum after 48 hrs by spectrophotometry. The format is functional.
Conditions: not given
Molecule `OC(CN1CCC(c2nnc(-c3cccc4ccccc34)o2)CC1)(Cn1cncn1)c1ccc(F)cc1F` (configuration not stated) returned an MIC80 of 4 µg/mL (≈ 7.74 µM).
Still for that read-out and setting: the same measure for `OC(CN1CCC(c2nnc(-c3ccccc3)o2)CC1)(Cn1cncn1)c1ccc(F)cc1F` (configuration not stated): 1 µg/mL (≈ 2.14 µM); for `OC(CN1CCC(c2nnc(-c3ccc(F)cc3)o2)CC1)(Cn1cncn1)c1ccc(F)cc1F` (configuration not stated): 2 µg/mL (≈ 4.13 µM).
On the same count and under the same terms, the same measure for `OC(CN1CCC(c2nc(-c3ccsc3)no2)CC1)(Cn1cncn1)c1ccc(F)cc1F` (configuration not stated): 4 µg/mL (≈ 8.47 µM).
On the same count and under the same terms, the same measure for `OC(CN1CCC(c2nc(-c3ccc(C(F)(F)F)cc3)no2)CC1)(Cn1cncn1)c1ccc(F)cc1F` (configuration not stated): 4 µg/mL (≈ 7.48 µM); for `CCc1ccc(-c2nnc(C3CCN(CC(O)(Cn4cncn4)c4ccc(F)cc4F)CC3)o2)cc1` (configuration not stated): 4 µg/mL (≈ 8.09 µM).

The subject of the next assay is Nannizzia gypsea. Nature of the assay: Antifungal activity against Microsporum gypseum after 48 hrs by spectrophotometry. The format is functional.
Conditions: not given
`OC(CN1CCC(c2nnc(-c3cccc4ccccc34)o2)CC1)(Cn1cncn1)c1ccc(F)cc1F` (configuration not stated) registered an MIC80 of 8 µg/mL (≈ 15.5 µM).
`OC(CN1CCC(c2nnc(-c3ccccc3)o2)CC1)(Cn1cncn1)c1ccc(F)cc1F` (configuration not stated) showed an MIC80 of 1 µg/mL (≈ 2.14 µM). This MIC80 is about 8-fold lower than that of the molecule before.
The same measure, in the same setting: the same measure for `OC(CN1CCC(c2nnc(-c3ccc(F)cc3)o2)CC1)(Cn1cncn1)c1ccc(F)cc1F` (configuration not stated): 2 µg/mL (≈ 4.13 µM); for `OC(CN1CCC(c2nc(-c3ccsc3)no2)CC1)(Cn1cncn1)c1ccc(F)cc1F` (configuration not stated): 4 µg/mL (≈ 8.47 µM).
Same read-out and setting: the same measure for `OC(CN1CCC(c2nc(-c3ccc(C(F)(F)F)cc3)no2)CC1)(Cn1cncn1)c1ccc(F)cc1F` (configuration not stated): 2 µg/mL (≈ 3.74 µM); for `CCc1ccc(-c2nnc(C3CCN(CC(O)(Cn4cncn4)c4ccc(F)cc4F)CC3)o2)cc1` (configuration not stated): 4 µg/mL (≈ 8.09 µM).
